Laboratory results taken from US20080051454A1, “Compositions and methods for transient receptor potential vanilloid (TRPV) channel mediated treatments” (The Board of Trustees Operating Michigan State University, priority 2006, published 2008).

Experiments:
[1] = tested on: renal cortex and medulla; test: Neonatal capsaicin treatment plus NS or HS diet: renal superoxide, SOD and NAD(P)H oxidase subunits; parameters: species or system rat
Method: Enhanced oxidative stress in kidneys of salt-sensitive hypertension: role of sensory nerves (Am J Physiol Heart Circ Physiol 291: H3136-H3143, 2006). To determine the mechanism(s) underlying enhanced oxidative stress in kidneys of salt-sensitive hypertension, neonatal Wistar rats were given vehicle or capsaicin (CAP, 50 mg/kg sc) on the first and second days of life. After being weaned, male rats were assigned into four groups and treated for 2 wk with the following: vehicle+a normal sodium diet (NS, 0.4%, CON-NS), vehicle+a high-sodium diet (HS, 4%, CON-HS), CAP+NS (CAP−NS), and CAP+HS (CAP−HS). […] Plasma and urinary 8-iso-prostaglandin F2alpha levels increased by approximately 40% in CON-HS and CAP−HS rats compared with their respective controls fed a NS diet (P≦0.05), and these parameters were higher in CAP−HS compared with CON-HS rats. Superoxide (O2—) levels in the renal cortex and medulla increased by approximately 45% in CAP−HS compared with CON-HS, CON-NS, and CAP−NS rats (P≦0.05). […]

[2] = tested on: Wistar rats (Con-NS, Con-HS, Cap-NS, Cap-HS); test: Natriuretic, diuretic and depressor effects of i.v. diuretics in control and capsaicin-pretreated rats on normal or high sodium diet; assay type: in vivo, rat; conditions: intravenous
Method: (a) Urine flow rate. (b) Urine sodium excretion. […] (c) Mean arterial pressure. […] Vehicle; trichlormethiazide.
(a) Urine flow rate. (b) Urine sodium excretion. […] (c) Mean arterial pressure.
(a) Urine flow rate. (b) Urine sodium excretion. […] (c) Mean arterial pressure. […] Vehicle; amiloride.
Design and methods Neonatal Wistar rats were treated with capsaicin or vehicle. Seven-week-old male rats were treated for 2 weeks with: vehicle plus a normal (Con-NS) or high (Con-HS) sodium diet, and capsaicin pretreatment plus a normal (Cap-NS) or high (Cap-HS) sodium diet. Mean arterial pressure (MAP), renal excretory function, and protein expression determined by Western blot were performed.

[3] = tested on: WT hearts; test: Lactate dehydrogenase (LDH) release during I/R; parameters: species or system mouse
Method: Lactate dehydrogenase (LDH) release: In addition to the measurement of cardiac function, cardiac injury was assessed by measuring LDH release. Perfusion effluent was collected during the first 10 minutes to 20 minutes of I/R and stored at […] until analyzed. Total LDH levels were determined with the use of a CytoTox 96 assay (Promega). The data were expressed as absorbance units released per milliliter per minute per gram of heart wet tissues (Turnbull et al., Am J Physiol Heart Circ Physiol 290: […]-9, 2006; herein incorporated by reference).

[4] = tested on: TRPV1−/− hearts; test: Preconditioning (PC) protection against I/R in Langendorff hearts with receptor antagonists, TRPV1-null; parameters: species or system mouse; conditions: CAPZ 10^−7 M, CGRP8-37 10^−6 M, RP67580 10^−7 M
Method: Male TRPV1 gene knockout (TRPV1-/-) strain B6.129S[…][…]^tm1Jul and matching control wild type (WT) strain C57BL/6J mice were used (Jackson Laboratory, Bar Harbor, Me.). Mice were heparinized (500 U/kg i.p.) and anesthetized with pentobarbital sodium (50 mg/kg i.p.). […] The distal end of the catheter was connected to a […] Performance Analyzer via a pressure transducer. Coronary flow (CF) was continuously measured using an ultrasonic flow probe placed in the aortic perfusion line. Hearts were paced at 400 bpm except during ischemic PC and sustained global ischemia to avoid inducing excessive ventricular tachyarrhythmia during reperfusion, and pacing was reinitiated 2 minutes after reperfusion. Left ventricular developed pressure (LVDP, peak systolic minuses LVEDP) and LV peak positive […]) during isovolumic contraction were used as indices of LV systolic function; LVEDP and the peak negative […] used as indices of LV diastolic function. […] Non-preconditioned hearts were time-matched perfused with the same duration as that of preconditioned hearts. Group 1: Controls. As normal controls (nonischemic), WT and TRPV1-/- hearts were perfused for 130 minutes. For I/R controls, WT and TRPV1-/- hearts were first perfused with Krebs-Henseleit buffer for 55 min (time-matched perfusion of the equilibration period plus the PC period), and subsequently subjected to 30 minutes of no-flow normothermic global ischemia followed by 40-minutes of reperfusion. Group 2: PC. […] The hearts were subjected to 30 minutes of no-flow normothermic global ischemia followed by 40-minutes of reperfusion as that of I/R control groups. Group 3: PC plus capsazepine (CAPZ). […] Two additional concentrations of CAPZ, 10^-6M and 10^-8 M, were used in WT hearts. An additional drug control was added. After a 20-minute equilibration period, WT hearts were perfused with CAPZ (10^-7 M) for 10 minutes without PC, followed by perfusion with Krebs-Henseleit buffer for 25 minutes (time-matched perfusion of the PC period) and then subjected to I/R. Group 4: […] […]

[5] = tested on: Wistar rats fed a normal-salt (NS) or high-salt (HS) diet for 10 days; test: MAP and HR responses to i.v. bolus NADA with or without antagonists in conscious rats; assay type: in vivo, rat; conditions: for prolonged depressor effect of NADA (decrease in MAP) after antagonist: NADA 4 mg/kg after CAPZ 3 mg/kg, CGRP8-37 infusion or SR141716A 3 mg/kg
Text: In brief: Wistar rats were fed a normal (NS, 0.4%) or high (HS, 4%) sodium diet for 10 days, then artery and vein were cannulated for measurement of mean arterial pressure (MAP) or for injection of drugs and collection of plasma.
Animal Preparation: Male Wistar rats (7 weeks old, Charles River Laboratory, Wilmington, Mass.) were housed in the animal facility for 1 week before the experiment. Rats were grouped randomly and pair-fed a NS (0.4% of Na^+ by weight) or HS (4% of Na^+ by weight) diet for 10 days. The rat chow was purchased from Harlan Teklad Diets (Madison, Wis.). Drinking water was available ad libitum throughout the experiment. All protocols were in accordance with the National Institutes of Health Guidelines for the Care and Use of Laboratory Animals.
(§1) Surgical Preparation Rats were anesthetized with ketamine and xylazine (80 and 4 mg/kg intraperitoneally, respectively) for cannulation or with urethane (1.5 g/kg intraperitoneally) for capsaicin administration. The left jugular vein, carotid and femoral artery were cannulated under anesthesia for injection of drugs or monitoring of mean arterial pressure (MAP) and heart rate (HR).
Three hours after surgery, baseline MAP and its response to the above-mentioned drugs were obtained with the rats fully awake and unrestrained [Wang et al., Am J Physiol 2004; 287:H1868-H[874]. NADA was injected in increasing doses (1, 4, and 10 mg/kg intravenous bolus) in 3 subgroups of rats (each group for each dose). To determine the role of TRPV1 and CB 1 receptor in NADA-induced hypotension, NADA (4 mg/kg) was injected 10 minutes or 20 minutes after intravenous injection of CAPZ (3 mg/kg) or SR141716A (3 mg/kg), respectively.
To examine the effect of CGRP8-37 on NADA-induced hypotension, CGRP8-37 was intravenously administered at the rate of 1 mg/kg/min for 2 minutes followed by injection at the rate of 0.5 mg/kg/min for 15 minutes. NADA (4 mg/kg) was injected 1 minute after CGRPs-37 administration. The effectiveness of the dose and time frame for CGRP8-37 injection was verified by blockade of the hypotensive response to capsaicin (30 μg/kg) (n=5).

[6] = tested on: WT hearts; test: Preconditioning (PC) protection against I/R in Langendorff hearts with receptor antagonists, wild type; parameters: species or system mouse
Method: Male TRPV1 gene knockout (TRPV1-/-) strain B6.129S[…][…]^tm1Jul and matching control wild type (WT) strain C57BL/6J mice were used (Jackson Laboratory, Bar Harbor, Me.). Mice were heparinized (500 U/kg i.p.) and anesthetized with pentobarbital sodium (50 mg/kg i.p.). […] The distal end of the catheter was connected to a […] Performance Analyzer via a pressure transducer. Coronary flow (CF) was continuously measured using an ultrasonic flow probe placed in the aortic perfusion line. Hearts were paced at 400 bpm except during ischemic PC and sustained global ischemia to avoid inducing excessive ventricular tachyarrhythmia during reperfusion, and pacing was reinitiated 2 minutes after reperfusion. Left ventricular developed pressure (LVDP, peak systolic minuses LVEDP) and LV peak positive […]) during isovolumic contraction were used as indices of LV systolic function; LVEDP and the peak negative […] used as indices of LV diastolic function. […] Non-preconditioned hearts were time-matched perfused with the same duration as that of preconditioned hearts. Group 1: Controls. As normal controls (nonischemic), WT and TRPV1-/- hearts were perfused for 130 minutes. For I/R controls, WT and TRPV1-/- hearts were first perfused with Krebs-Henseleit buffer for 55 min (time-matched perfusion of the equilibration period plus the PC period), and subsequently subjected to 30 minutes of no-flow normothermic global ischemia followed by 40-minutes of reperfusion. Group 2: PC. […] The hearts were subjected to 30 minutes of no-flow normothermic global ischemia followed by 40-minutes of reperfusion as that of I/R control groups. Group 3: PC plus capsazepine (CAPZ). […] Two additional concentrations of CAPZ, 10^-6M and 10^-8 M, were used in WT hearts. An additional drug control was added. After a 20-minute equilibration period, WT hearts were perfused with CAPZ (10^-7 M) for 10 minutes without PC, followed by perfusion with Krebs-Henseleit buffer for 25 minutes (time-matched perfusion of the PC period) and then subjected to I/R. Group 4: […] Two additional concentrations of CGRP8-37, 10^-5 M and 10^-7 M, were used in WT hearts. An additional drug control of CGRP8-37 was added as that of the CAPZ control group. Group 5: PC plus RP67580. To determine the role of endogenous SP during PC, hearts from WT and TRPV1-/-mice were perfused as that of CAPZ with RP67580 (10^-7 M), a selective neurokinin-1 (NK1) receptor antagonist. Two additional concentrations of RP67580, 10^-6 M and 10^-8 M, were used in WT hearts. An additional drug control of RP67580 was added as that of the CAPZ control group.

[7] = tested on: Wistar rats fed a NS or HS diet for 10 days; test: MAP responses to i.v. capsaicin with or without CAPZ in urethane-anesthetized rats; assay type: in vivo, rat; conditions: CGRP8-37 infusion; capsaicin 30 μg/kg
Method: as §1
Each dose of injection was separated by a 30-minute interval. To determine the specificity of capsaicin, CAPZ (3 mg/kg) was administered 10 minutes before capsaicin injection in a separate group.

[8] = tested on: hearts of WT mice; test: Langendorff perfused heart, ischemia and reperfusion (I/R) with OLDA, wild type; parameters: species or system mouse; conditions: antagonist 1×10^−6 M
Method: The following measurements were made on the two types of heart tissue: left ventricular end-diastolic pressure (LVEDP), left ventricular developed pressure (LVDP), coronary flow (CF), and left ventricular (LV) peak positive rate of pressure change/rate of time change (+dP/dt) were evaluated after I/R.

[9] = tested on: male Wistar rats; test: Depressor effect of 20-HETE analog DSR given IV, with or without antagonists; assay type: in vivo, rat; conditions: DSR 1 mg/kg with CAPZ 3 mg/kg, RP67580 4 mg/kg or CGRP 8-37 3 mg/kg
[10] = tested on: rats; test: Mean arterial pressure before and after left renal pelvis perfusion (LRPP) treatments; assay type: in vivo, rat
Text: Urine flow rate (V, FIG. 3a) and urinary sodium excretion (UNaV, FIG. 3b) of the contralateral kidney are shown (n=5-6 in each group). +vs baseline and all other groups, +p<0.05.

## COc1cc(C(C)=O)ccc1O [apocynin]
[1]; apocynin 0.1 mM, CAP−HS rats
  O2— production in renal cortex after ex vivo incubation: 2.83 0.38 nmol_min—1_mg dry wt—1
  O2— production in renal medulla after ex vivo incubation: 1.73 0.23 nmol_min—1_mg dry wt—1
[1]; apocynin, CON-HS, CON-NS and CAP−NS rats
  effect on O2— production: no significant effects
[1]; preincubation of renal tissues with apocynin
  effect on enhanced O2— levels in cortex and medulla of CAP−HS rats: prevented

## NS(=O)(=O)c1cc2c(cc1Cl)NC(C(Cl)Cl)NS2(=O)=O (stereo not drawn) [trichlormethiazide]
[2]
  effect on MAP (words): decreased MAP in Cap-HS but not in Cap-NS, Con-NS, and Con-HS rats
  time of peak urine flow rate (UFR) after injection: 10 min
  urine flow / urine sodium excretion (words): significantly increased
[2]; listed as Trichlormethiazide
  effect on MAP (words): decreased MAP in Cap-HS rats only
  urine flow / urine sodium excretion (words): increased

## CGRP8-37: selective calcitonin gene-related peptide (CGRP) receptor antagonist peptide
[3]
  effect on PC protection assessed by LDH levels after I/R in WT hearts: abolished
[4]
  effect on these parameters in TRPV1−/− hearts: no effect
[5]; NADA 4 mg/kg
  effect of antagonist on NADA-induced depressor effect: abolished
[5]; HS diet
  prolonged depressor effect of NADA (decrease in MAP) after antagonist: 6±3 mmHg
[5]; NS diet
  prolonged depressor effect of NADA (decrease in MAP) after antagonist: 5±2 mmHg
[6]
  effect on cardiac function in WT hearts without I/R: no effect on cardiac function
[6]; CAPZ 10^−7 M, CGRP8-37 10^−6 M, RP67580 10^−7 M
  effect on PC-induced cardiac protection (LVEDP, LVDP, CF, +dP/dt, −dP/dt) in WT hearts: blocked PC-induced cardioprotective effects
[7]
  effect on hypotensive response to capsaicin: blockade
[8]
  effect on protective effect of OLDA in WT hearts: abolished
[9]
  DSR induced-depressor effect after antagonist: 9.3±3.3 mmHg

## NS(=O)(=O)c1cc(C(=O)O)c(NCc2ccco2)cc1Cl [furosemide]
[2]
  effect on MAP (words): decreased MAP in Cap-HS but not in Cap-NS, Con-NS, and Con-HS rats
  time of peak urine flow rate (UFR) after injection: 5 min
[2]; listed as Furosemide
  effect on MAP (words): decreased MAP in Cap-HS rats only

## OC[C@@H](O)[C@@H](O)[C@H](O)[C@H](O)CO [1200 mOsm Mannitol, Mannitol]
[10]; after treatment
  Mean arterial pressure, Treatment: 121 ± 7 mmHg
[10]; before treatment
  Mean arterial pressure, Baseline: 121 ± 6 mmHg
